Data set [1] in a line: (§1) Pharmacokinetic parameters for Pentoxifylline evaluated after oral administration of Pentoxifylline tablet and in aqueous solution. In kind it is ADME, organism-based. The conditions noted are these: human, in vivo, dosed compound id 54, dosed compound name PENTOXIFYLLINE, tissue Plasma.
In data set [2] the test system is Homo sapiens. The description is as §1. The conditions noted are these: in vivo, po, dose 400 mg, dosed compound id 54, dosed compound name PENTOXIFYLLINE, tissue Plasma. In kind it is ADME, organism-based.

SMILES strings stand for the structures.

As usually defined, the half-life is how long it takes for the measured level to halve. A higher half-life goes with slow decline. As usually defined, the Tmax is the time at which the peak concentration occurs. `CC(=O)CCCCn1c(=O)c2c(ncn2C)n(C)c1=O` [PENTOXIFYLLINE]: in data set [1] (dose 100 to 400 mg), the half-life fell in the range of 0.4 to 0.8 h. The values for the Tmax in data set [1] and in data set [2] were 1 h and 2 to 4 h, respectively.

(Values after ChEMBL document CHEMBL3832075, “DailyMed|setid=ff7c9b1c-4192-4d09-a2ab-b80ec14cd424 | PENTOXIL- pentoxifylline tablet, film coated, extended release|UPSHER-SMITH LABORATORIES, INC”.)
